# How the values were obtained:
# [1] = test system: broad panel of cancer cell lines; assay: Anti-tumor activity of the single agent in a panel of cancer cell lines; type: cell-based
# Experimental: The cell lines were grown in the media recommended by the suppliers in the presence of 100 U/ml penicillinG and 100 μg/ml streptomycin supplied with 10% FCS (PAN, Germany).
# Cell growth and treatment were performed in 96-well microtitre plates. Cells harvested from exponential phase cultures by trypsinization were plated in 190 μl of media at optimal seeding densities. The optimal seeding densities for each cell line were determined to ensure exponential growth for the duration of the experiment. All cells growing without anticancer agents were sub-confluent by the end of the treatment as determined by visual inspection. Compound dilutions in DMSO were performed in 96-well rigid PCR plates. Compounds were then diluted […] in RPMI medium. 190 μl of cells, after a 24-hour pre-growth period, were treated by mixing with 10 μl of the compound-containing media (resulting in a final DMSO concentration of 0.1%). The cells were allowed to grow at 37° C. for 72 hours. In addition, all experiments contained a few plates with cells that were processed for measurement immediately after the 24 hours recovery period. These plates contained information about the cell number that existed before treatment, at time zero, and served to calculate the cytotoxicity and/or growth inhibitory effects. […] Measurement of optical density was performed at 560 nm on a Victor 2 plate reader (Perkin Elmer, Germany). […]
# [2] = test system: Her2+ patient-derived breast model "CTG-0033"; assay: Patient derived xenograft model of breast cancer, tumor volume efficacy study; type: in vivo, mice
# Text: Female nude (Harlan; nu/nu) between 5-7 weeks were implanted subcutaneously with tumor fragments from the Her2+ patient-derived breast model “CTG-0033” (passage 3, i.e. the model has been serially passaged/grown from the original host 3 times) harvested from host animals. When host tumors reached 1-1.5 cm^3, tumors were harvested for re-implantation into animals to be used for the efficacy study. When the CTG-0033 (passage 4) tumors reached approximately 190 mm^3; animals were randomized by tumor volume into treatment or control groups (n=10) and dosing was initiated on Day 0. […] Tumor volumes were recorded twice per week. […] The other treatments were stopped at Day 75 and tumors were allowed to grow back for over 2 months with mice receiving no treatment.
smiles,measurement,setting,value
"NC(=O)c1cccc2c(N[C@H](CN3CCC3)c3ccc(Cl)c(C(F)(F)F)c3)ncnc12 [Compound A, 4-[(S)-2-Azetidin-1-yl-1-(4-chloro-3-trifluoromethyl-phenyl)-ethylamino]-quinazoline-8-carboxylic acid amide]",anti-tumor activity against a broad panel of cancer cell lines,[1],potent anti-tumor activity
same,sensitivity of cancer cells to the compound,"[1]; breast cancer cells, glioblastoma cells, endometrial cancer cells and ovarian carcinoma cells",particularly sensitive
same,tumor regression,"[2]; Day 55, Compound A 30 mg/kg QD PO, Herceptin 15 mg/kg QW IV in the combination, CTG-0033 tumors in female nude mice",50%
same,tumor regression,"[2]; Day 76, after treatment until Day 75",−66%
same,number of treated tumors that grew back,"[2]; after 71 days of regrowth period after cessation of treatment, log rank sum test p<0.05",6

# Reference: patent US9980966B2, “Combinations of cancer therapeutics” (Merck Patent GmbH, priority 2014, dated 2018)
